Results: patent publication US20240327412A1, “FACTOR XIIA INHIBITORS” (KALVISTA PHARMACEUTICALS LIMITED, priority 2021, published 2024)

Legend:
Format in all cases: biochemical
KLK1 = KLK1 (Homo sapiens, UniProt P06870); test: Related protease inhibition: KLK1 (fluorogenic substrate at Km); conditions: class symbols per Table 18
Experimental: (§1) In vitro inhibition of related proteases was determined using an IC50 assay based on standard literature methods (see e.g. Shori et al., Biochem. Pharmacol., 1992, 43, 1209; Bouckaert et al., European Journal of Medicinal Chemistry 110 (2016) 181). Human serine protease enzyme Plasma Kallikrein, KLK1, FXa, Plasmin, Thrombin and Trypsin were assayed for enzymatic activity using an appropriate fluorogenic substrate at Km concentration, FXIa at fixed substrate concentration of 100 μM and various concentrations of the test compound. Protease activity was measured by monitoring the accumulation of liberated fluorescence from the substrate over 5 min at 25° C. The linear rate of fluorescence increase per minute was expressed as percentage (%) activity. IC50 values were calculated as the concentration of inhibitor giving 50% inhibition of the uninhibited enzyme activity (100%).

FXa = FXa (Homo sapiens, UniProt P00742); test: Related protease inhibition: FXa (fluorogenic substrate at Km); conditions: class symbols per Table 18
Experimental: as §1

Human Factor XIIa = biological target: T1, Human Factor XIIa (Homo sapiens, UniProt P00748); test: Determination of FXIIa inhibition (fluorogenic substrate H-DPro-Phe-Arg-AFC, IC50 assay); conditions: substrate at Km concentration, 25° C.; category scale; read-out: Human FXII IC50 (nm)
T1 construct: Proteolytic cleavage of FXII to heavy and light chains of FXIIa dramatically increases catalytic activity; purchased Enzyme Research Laboratories
T1 sequence (P00748 373-615 limits assumed): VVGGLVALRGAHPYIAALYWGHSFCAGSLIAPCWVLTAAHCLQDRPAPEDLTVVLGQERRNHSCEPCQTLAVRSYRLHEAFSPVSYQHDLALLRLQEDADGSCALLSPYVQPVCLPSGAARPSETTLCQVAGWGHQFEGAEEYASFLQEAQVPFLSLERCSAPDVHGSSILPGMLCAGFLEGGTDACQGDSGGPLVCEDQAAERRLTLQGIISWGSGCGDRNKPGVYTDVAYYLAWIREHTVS
T1 sequence (P00748 20-372 partner limits assumed): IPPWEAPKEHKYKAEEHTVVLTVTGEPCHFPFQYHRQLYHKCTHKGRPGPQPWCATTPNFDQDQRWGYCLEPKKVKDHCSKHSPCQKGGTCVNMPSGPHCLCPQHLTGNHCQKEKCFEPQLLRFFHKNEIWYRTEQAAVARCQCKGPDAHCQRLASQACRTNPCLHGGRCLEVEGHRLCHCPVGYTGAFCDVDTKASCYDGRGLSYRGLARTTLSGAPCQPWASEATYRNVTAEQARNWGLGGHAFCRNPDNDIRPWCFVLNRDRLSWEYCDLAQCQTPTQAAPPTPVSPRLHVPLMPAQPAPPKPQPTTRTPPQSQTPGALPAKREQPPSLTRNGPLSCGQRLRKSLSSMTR
How it was run: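 At substrate Km and 25° C., the rate of AFC release from H-DPro-Phe-Arg-AFC by human Factor XIIa was followed for 5 min across compound concentrations. Inhibition was derived as percent of uninhibited rate, giving IC50.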

Plasma Kallikrein = biological target: T2, Plasma Kallikrein (Homo sapiens, UniProt P03952); test: Related protease inhibition: Plasma Kallikrein (fluorogenic substrate at Km); conditions: class symbols per Table 18, read-out: IC50 (human PKal)
T2 construct: FXIIa converts plasma prekallikrein (PK) to plasma kallikrein (PKa)
How it was run: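 Protease activity against a fluorogenic substrate (Km level; 100 μM fixed for FXIa) is measured at 25° C across various inhibitor concentrations. Liberated fluorescence is tracked for 5 min, and slopes are expressed relative to uninhibited enzyme to give the IC50.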

Thrombin = Thrombin (Homo sapiens, UniProt P00734); test: Related protease inhibition: Thrombin (fluorogenic substrate at Km); conditions: class symbols per Table 18
Experimental: as §1

Chain of FXa (P00742 235-488 limits assumed): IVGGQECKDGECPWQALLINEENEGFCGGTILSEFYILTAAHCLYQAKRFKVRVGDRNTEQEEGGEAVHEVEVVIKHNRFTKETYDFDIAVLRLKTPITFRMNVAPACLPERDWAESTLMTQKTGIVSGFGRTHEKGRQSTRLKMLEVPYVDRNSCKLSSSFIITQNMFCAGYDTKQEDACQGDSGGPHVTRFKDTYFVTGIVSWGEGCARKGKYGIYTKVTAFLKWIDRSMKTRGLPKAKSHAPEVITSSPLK
Chain of FXa (P00742 41-179 partner limits assumed): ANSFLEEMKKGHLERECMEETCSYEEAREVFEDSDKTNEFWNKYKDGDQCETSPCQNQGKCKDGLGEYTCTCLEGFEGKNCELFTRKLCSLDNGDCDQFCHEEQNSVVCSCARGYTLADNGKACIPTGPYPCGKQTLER
Chain of KLK1 (P06870 25-262): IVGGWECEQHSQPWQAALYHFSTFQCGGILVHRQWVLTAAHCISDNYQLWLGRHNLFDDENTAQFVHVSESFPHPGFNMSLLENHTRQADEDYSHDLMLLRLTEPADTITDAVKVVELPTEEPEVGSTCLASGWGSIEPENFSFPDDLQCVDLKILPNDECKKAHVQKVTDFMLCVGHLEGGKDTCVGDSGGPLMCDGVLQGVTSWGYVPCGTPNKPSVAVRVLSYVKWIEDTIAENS
T2 sequence (P03952 391-638 limits assumed): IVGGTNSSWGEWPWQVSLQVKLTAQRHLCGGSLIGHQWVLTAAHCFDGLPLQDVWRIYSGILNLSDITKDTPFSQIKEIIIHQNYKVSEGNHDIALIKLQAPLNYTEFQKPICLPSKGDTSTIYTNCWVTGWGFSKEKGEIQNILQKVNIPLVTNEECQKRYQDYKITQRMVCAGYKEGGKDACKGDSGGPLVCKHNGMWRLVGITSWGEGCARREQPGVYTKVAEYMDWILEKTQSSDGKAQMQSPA
T2 sequence (P03952 20-390 partner limits assumed): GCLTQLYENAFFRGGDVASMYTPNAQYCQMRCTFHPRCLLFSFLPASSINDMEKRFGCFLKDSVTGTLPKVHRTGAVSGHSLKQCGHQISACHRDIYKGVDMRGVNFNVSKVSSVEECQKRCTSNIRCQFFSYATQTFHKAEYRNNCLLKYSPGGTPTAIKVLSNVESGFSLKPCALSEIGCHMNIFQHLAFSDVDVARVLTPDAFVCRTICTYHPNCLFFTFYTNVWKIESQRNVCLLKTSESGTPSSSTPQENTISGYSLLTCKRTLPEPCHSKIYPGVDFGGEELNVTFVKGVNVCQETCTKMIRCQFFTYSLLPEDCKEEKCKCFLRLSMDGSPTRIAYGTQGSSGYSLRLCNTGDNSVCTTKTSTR

Structure (SMILES)	IC50 (KLK1)	IC50 (FXa)	IC50 (Human Factor XIIa)	IC50 (Plasma Kallikrein)	IC50 (Thrombin)
c1cc2cc(NCC34CC(COc5ccn6ccnc6c5)(C3)C4)ccc2cn1 [Example 1011, N-((3-((imidazo[1,2-a]pyridin-7-yloxy)methyl)bicyclo[1.1.1]pentan-1-yl)methyl)isoquinolin-6-amine]	10 to 40 µM	1 to 3 µM	10 to 40 µM	> 100 µM	10 to 40 µM
Cc1cc2c(NCC34CC(COc5ccn6ccnc6c5)(CO3)C4)ccnc2[nH]1 [Example 6605, N-((4-((imidazo[1,2-a]pyridin-7-yloxy)methyl)-2-oxabicyclo[2.1.1]hexan-1-yl)methyl)-2-methyl-1H-pyrrolo[2,3-b]pyridin-4-amine]	10 to 40 µM	10 to 40 µM	3 to 10 µM	> 40 µM	10 to 40 µM
Cc1cc2c(NCC34CC(COc5ccn6ccnc6c5)(CCO3)C4)ccnc2[nH]1 [Example 10907, N-[[5-(Imidazo[1,2-a]pyridin-7-yloxymethyl)-2-oxabicyclo[3.1.1]heptan-1-yl]methyl]-2-methyl-1H-pyrrolo[2,3-b]pyridin-4-amine]	> 40 µM	> 40 µM	1 to 3 µM	> 40 µM	> 40 µM
Nc1nccc2c(NCC34CC(COc5ccc6nnc(C(F)F)n6n5)(CO3)C4)cccc12 [Example 6608, N5-((4-(((3-(difluoromethyl)-[1,2,4]triazolo[4,3-b]pyridazin-6-yl)oxy)methyl)-2-oxabicyclo[2.1.1]hexan-1-yl)methyl)isoquinoline-1,5-diamine]	3 to 10 µM	> 40 µM	0.3 to 1 µM	> 40 µM	> 40 µM
Nc1nccc2c(NCC34CC(CN5CCn6ccnc6C5)(C3)C4)cccc12 [Example 1004, 5-N-[[3-(6,8-Dihydro-5H-imidazo[1,2-a]pyrazin-7-ylmethyl)-1-bicyclo[1.1.1]pentanyl]methyl]isoquinoline-1,5-diamine]	3 to 10 µM	1 to 3 µM	3 to 10 µM	> 40 µM	10 to 40 µM
Nc1nccc2c(NCC34COC(COc5ccc6nnc(C(F)F)n6n5)(C3)C4)cccc12 [Example 2204, N5-((1-(((3-(difluoromethyl)-[1,2,4]triazolo[4,3-b]pyridazin-6-yl)oxy)methyl)-2-oxabicyclo[2.1.1]hexan-4-yl)methyl)isoquinoline-1,5-diamine]	3 to 10 µM	> 40 µM	0.3 to 1 µM	> 40 µM	> 40 µM
Nc1nccc2c(NCC34CC(C(=O)N5CCn6ccnc6C5)(C3)C4)cccc12 [Example 1016, [3-[[(1-Aminoisoquinolin-5-yl)amino]methyl]-1-bicyclo[1.1.1]pentanyl]-(6,8-dihydro-5H-imidazo[1,2-a]pyrazin-7-yl)methanone]	3 to 10 µM	> 40 µM	3 to 10 µM	> 40 µM	> 40 µM
Nc1nccc2c(NCC34CC(COc5ccc6nccn6c5)(CCO3)C4)cccc12 [Example 10904, N5-((5-((imidazo[1,2-a]pyridin-6-yloxy)methyl)-2-oxabicyclo[3.1.1]heptan-1-yl)methyl)isoquinoline-1,5-diamine]	3 to 10 µM	> 40 µM	0.01 to 0.1 µM	> 40 µM	10 to 40 µM
Cn1ccc(OCC23COC(CNc4cccc5c(N)nccc45)(C2)C3)cc1=O [Example 6609, 4-((1-(((1-aminoisoquinolin-5-yl)amino)methyl)-2-oxabicyclo[2.1.1]hexan-4-yl)methoxy)-1-methylpyridin-2(1H)-one]	3 to 10 µM	> 40 µM	0.1 to 0.3 µM	> 40 µM	> 40 µM
Nc1nccc2c(NCC34CC(COc5ccc6nc[nH]c6c5)(C3)C4)cccc12 [Example 1105, N5-((3-(((1H-benzo[d]imidazol-6-yl)oxy)methyl)bicyclo[1.1.1]pentan-1-yl)methyl)isoquinoline-1,5-diamine]	3 to 10 µM	1 to 3 µM	3 to 10 µM	> 40 µM	10 to 40 µM
Nc1nccc2c(NCC34CC(COc5ccc6nccn6c5)(C3)C4)cccc12 [Example 1017, 5-N-[[3-(Imidazo[1,2-a]pyridin-6-yloxymethyl)-1-bicyclo[1.1.1]pentanyl]methyl]isoquinoline-1,5-diamine]	3 to 10 µM	10 to 40 µM	0.1 to 0.3 µM	> 40 µM	10 to 40 µM
Cc1cc2c(NCC34CC(COc5ccn6ccnc6c5)(C3)C4)ccnc2[nH]1 [Example 1012, N-((3-((Imidazo[1,2-a]pyridin-7-yloxy)methyl)bicyclo[1.1.1]pentan-1-yl)methyl)-2-methyl-1H-pyrrolo[2,3-b]pyridin-4-amine]	> 40 µM	1 to 3 µM	1 to 3 µM	> 100 µM	1 to 3 µM
Nc1nccc2c(NCC34CC(COc5ccn6ccnc6c5)(CO3)C4)cccc12 [Example 6601, 5-N-[[4-(Imidazo[1,2-a]pyridin-7-yloxymethyl)-2-oxabicyclo[2.1.1]hexan-1-yl]methyl]isoquinoline-1,5-diamine]	3 to 10 µM	10 to 40 µM	0.01 to 0.1 µM	> 40 µM	10 to 40 µM

Continued, values first:

IC50 (KLK1)	IC50 (FXa)	IC50 (Human Factor XIIa)	IC50 (Plasma Kallikrein)	IC50 (Thrombin)	Structure (SMILES)
3 to 10 µM	> 40 µM	1 to 3 µM	> 40 µM	10 to 40 µM	Nc1nccc2c(NCC34CC(COC5Cc6nccn6C5)(C3)C4)cccc12 (stereo not shown) [Example 1118, N5-((3-(((6,7-dihydro-5H-pyrrolo[1,2-a]imidazol-6-yl)oxy)methyl)bicyclo[1.1.1]pentan-1-yl)methyl)isoquinoline-1,5-diamine]
3 to 10 µM	> 40 µM	0.1 to 0.3 µM	> 40 µM	> 40 µM	Nc1nccc2c(NC[C@H]3C[C@@H](COc4ccn5ccnc5c4)C3)cccc12 [Example 5003, N5-((cis-3-((imidazo[1,2-a]pyridin-7-yloxy)methyl)cyclobutyl)methyl)isoquinoline-1,5-diamine]
1 to 3 µM	10 to 40 µM	0.3 to 1 µM	> 40 µM	10 to 40 µM	Nc1nccc2c(NCC34CC(COc5ccc6c(c5)C(=O)NC6)(C3)C4)cccc12 [Example 1109, 6-((3-(((1-aminoisoquinolin-5-yl)amino)methyl)bicyclo[1.1.1]pentan-1-yl)methoxy)isoindolin-1-one]
3 to 10 µM	10 to 40 µM	0.3 to 1 µM	> 40 µM	10 to 40 µM	Cn1ccc(OCC23CC(CNc4cccc5c(N)nccc45)(C2)C3)cc1=O [Example 1019, 4-[[3-[[(1-aminoisoquinolin-5-yl)amino]methyl]-1-bicyclo[1.1.1]pentanyl]methoxy]-1-methylpyridin-2-one]
3 to 10 µM	1 to 3 µM	3 to 10 µM	> 40 µM	10 to 40 µM	Nc1nccc2c(NCC34CC(COc5cnc6cc[nH]c6c5)(C3)C4)cccc12 [Example 1101, 5-N-[[3-(1H-pyrrolo[3,2-b]pyridin-6-yloxymethyl)-1-bicyclo[1.1.1]pentanyl]methyl]isoquinoline-1,5-diamine]
1 to 3 µM	1 to 3 µM	0.1 to 0.3 µM	> 40 µM	10 to 40 µM	Cc1cn2ccc(OCC34CC(CNc5cccc6c(N)nccc56)(C3)C4)cc2n1 [Example 1006, N5-((3-(((2-Methylimidazo[1,2-a]pyridin-7-yl)oxy)methyl)bicyclo[1.1.1]pentan-1-yl)methyl)isoquinoline-1,5-diamine]
1 to 3 µM	> 40 µM	0.3 to 1 µM	> 40 µM	> 40 µM	Nc1nccc2c(NC[C@H]3C[C@H](COc4ccn5ccnc5c4)C3)cccc12 [Example 4401, N5-((trans-3-((imidazo[1,2-a]pyridin-7-yloxy)methyl)cyclobutyl)methyl)isoquinoline-1,5-diamine]
